One may read the pIC50 as −log10 of the IC50, conventionally taken in molar units. Broadly, the inhibition is the drop in the measured response relative to a control, in per cent.

The source of these data is patent publication US4777167A, “Pharmaceutically useful substituted thiacycloalkeno [3,2-b]pyridines, compositions and method of use” (Ortho Pharmaceutical Corporation, priority 1987, dated 1988).

Experiment [1] deals with T1, calcium channels (Oryctolagus cuniculus, UniProt P15381).
T1 construct: from tissue; host or cells: heart of female New Zealand white rabbits, membrane fraction (42,000×g pellet)
T1 sequence (P15381 whole entry, other chains not shown): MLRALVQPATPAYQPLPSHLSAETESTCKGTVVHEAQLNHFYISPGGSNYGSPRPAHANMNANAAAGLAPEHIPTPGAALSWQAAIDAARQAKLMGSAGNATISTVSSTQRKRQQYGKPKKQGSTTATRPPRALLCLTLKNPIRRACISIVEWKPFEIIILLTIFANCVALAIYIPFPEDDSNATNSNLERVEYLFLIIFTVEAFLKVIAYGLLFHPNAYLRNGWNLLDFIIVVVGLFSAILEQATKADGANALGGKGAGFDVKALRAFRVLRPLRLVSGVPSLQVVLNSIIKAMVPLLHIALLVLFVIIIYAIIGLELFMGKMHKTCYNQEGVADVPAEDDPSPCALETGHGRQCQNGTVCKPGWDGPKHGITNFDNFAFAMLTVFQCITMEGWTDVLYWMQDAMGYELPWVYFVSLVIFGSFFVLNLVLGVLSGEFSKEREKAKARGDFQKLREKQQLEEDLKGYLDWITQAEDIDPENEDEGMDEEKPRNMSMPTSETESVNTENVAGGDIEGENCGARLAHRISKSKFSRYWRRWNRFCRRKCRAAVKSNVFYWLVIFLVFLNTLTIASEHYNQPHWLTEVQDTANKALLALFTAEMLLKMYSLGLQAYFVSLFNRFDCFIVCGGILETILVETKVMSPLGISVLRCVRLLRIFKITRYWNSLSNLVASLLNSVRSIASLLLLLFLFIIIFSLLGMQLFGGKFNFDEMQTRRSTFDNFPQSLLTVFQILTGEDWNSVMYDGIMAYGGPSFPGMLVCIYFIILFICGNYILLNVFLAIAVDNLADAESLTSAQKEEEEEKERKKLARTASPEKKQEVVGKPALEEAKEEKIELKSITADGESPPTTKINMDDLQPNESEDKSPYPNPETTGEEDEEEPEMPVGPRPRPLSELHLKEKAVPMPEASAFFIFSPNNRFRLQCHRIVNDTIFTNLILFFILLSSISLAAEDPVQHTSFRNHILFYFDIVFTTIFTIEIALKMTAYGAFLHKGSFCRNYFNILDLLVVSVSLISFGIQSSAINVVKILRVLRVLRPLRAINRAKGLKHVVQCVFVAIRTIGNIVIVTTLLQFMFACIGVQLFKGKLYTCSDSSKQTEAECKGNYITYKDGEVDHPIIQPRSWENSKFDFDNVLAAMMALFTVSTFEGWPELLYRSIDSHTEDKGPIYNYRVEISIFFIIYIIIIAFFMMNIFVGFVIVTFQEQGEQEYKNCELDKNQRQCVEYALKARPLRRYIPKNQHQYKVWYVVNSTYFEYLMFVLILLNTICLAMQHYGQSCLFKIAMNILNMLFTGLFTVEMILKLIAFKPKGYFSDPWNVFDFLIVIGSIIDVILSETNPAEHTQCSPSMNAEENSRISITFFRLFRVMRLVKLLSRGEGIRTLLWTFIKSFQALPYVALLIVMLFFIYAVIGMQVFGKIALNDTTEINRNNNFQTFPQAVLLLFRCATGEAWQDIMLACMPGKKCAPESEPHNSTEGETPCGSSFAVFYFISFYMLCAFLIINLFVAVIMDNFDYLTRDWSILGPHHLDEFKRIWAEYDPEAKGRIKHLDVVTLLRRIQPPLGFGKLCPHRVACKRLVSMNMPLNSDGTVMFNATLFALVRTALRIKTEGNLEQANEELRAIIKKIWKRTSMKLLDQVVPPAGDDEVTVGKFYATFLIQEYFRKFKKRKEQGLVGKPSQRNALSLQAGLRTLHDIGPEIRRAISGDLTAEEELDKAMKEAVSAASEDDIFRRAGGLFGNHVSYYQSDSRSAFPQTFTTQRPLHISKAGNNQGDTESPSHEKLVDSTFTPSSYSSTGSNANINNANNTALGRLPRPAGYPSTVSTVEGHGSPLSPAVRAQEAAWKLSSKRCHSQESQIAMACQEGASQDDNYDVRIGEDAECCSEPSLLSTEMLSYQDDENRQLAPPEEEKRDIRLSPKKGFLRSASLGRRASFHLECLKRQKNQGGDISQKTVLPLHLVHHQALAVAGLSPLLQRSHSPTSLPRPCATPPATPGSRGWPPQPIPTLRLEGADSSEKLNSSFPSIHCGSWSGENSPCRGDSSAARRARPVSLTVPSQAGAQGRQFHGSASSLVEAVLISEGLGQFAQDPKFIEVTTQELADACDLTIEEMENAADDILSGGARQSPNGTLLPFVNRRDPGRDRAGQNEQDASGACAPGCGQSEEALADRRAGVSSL
T1 sequence (P13806 27-960 partner limits assumed, other chains not shown): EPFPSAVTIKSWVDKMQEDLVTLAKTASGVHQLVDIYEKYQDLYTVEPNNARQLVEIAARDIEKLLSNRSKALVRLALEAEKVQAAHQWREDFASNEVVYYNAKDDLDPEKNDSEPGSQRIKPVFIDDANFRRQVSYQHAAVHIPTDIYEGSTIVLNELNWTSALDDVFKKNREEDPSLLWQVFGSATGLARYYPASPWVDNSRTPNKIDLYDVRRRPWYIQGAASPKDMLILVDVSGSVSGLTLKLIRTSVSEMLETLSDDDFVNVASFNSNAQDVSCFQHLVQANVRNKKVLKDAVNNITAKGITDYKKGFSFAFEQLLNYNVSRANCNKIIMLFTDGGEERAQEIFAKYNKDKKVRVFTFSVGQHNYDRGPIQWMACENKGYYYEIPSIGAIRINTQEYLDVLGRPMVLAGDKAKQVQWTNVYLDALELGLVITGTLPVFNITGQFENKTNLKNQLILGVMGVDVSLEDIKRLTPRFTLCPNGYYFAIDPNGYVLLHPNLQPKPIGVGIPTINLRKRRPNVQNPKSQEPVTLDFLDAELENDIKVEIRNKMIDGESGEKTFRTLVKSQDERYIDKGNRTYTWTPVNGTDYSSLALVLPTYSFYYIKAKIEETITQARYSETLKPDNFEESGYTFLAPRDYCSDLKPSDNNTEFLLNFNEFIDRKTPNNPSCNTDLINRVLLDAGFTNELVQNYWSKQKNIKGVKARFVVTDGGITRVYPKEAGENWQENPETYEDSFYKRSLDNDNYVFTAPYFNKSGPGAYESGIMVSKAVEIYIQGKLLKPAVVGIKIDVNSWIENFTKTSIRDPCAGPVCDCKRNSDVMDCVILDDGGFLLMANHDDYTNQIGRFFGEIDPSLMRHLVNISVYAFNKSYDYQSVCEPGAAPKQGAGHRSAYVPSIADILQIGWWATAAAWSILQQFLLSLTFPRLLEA
T1 sequence (P13806 961-1106 partner limits assumed, other chains not shown): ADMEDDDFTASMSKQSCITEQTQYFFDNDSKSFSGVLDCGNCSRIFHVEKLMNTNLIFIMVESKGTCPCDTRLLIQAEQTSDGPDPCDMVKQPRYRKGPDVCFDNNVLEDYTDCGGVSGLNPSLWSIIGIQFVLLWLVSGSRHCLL
The experiment is described as follows: Inhibition of nitrendipine binding (3H-nitrendipine displacement, rabbit heart membranes). Details: species or system rabbit (New Zealand white). As to conditions: 90 min, 4° C. On the procedure:
(1) Inhibition of nitrendipine binding to calcium channels.
The assay for inhibition of nitrendipine binding follows the following procedure:
Female, New Zealand white rabbits (1-2 kg) are sacrificed by cervical dislocation, and the heart is immediately removed, cleaned, and chopped into small pieces. The tissue is homogenized in 5× volume of 0.05M Hepes buffer, pH 7.4. The homogenate is centrifuged at 4000×g for 10 minutes; the supernatant is recentrifuged at 42,000×g for 90 minutes. The resulting membrane pellet is resuspended (0.7 ml/g weight) in 0.05M Hepes, pH 7.4 and stored at -70° C. until used. Each tube of the binding assay contains ^3 H- nitrendipine (0.05-0.50 nM), buffer, membranes (0.10 ml), and test compound in a total volume of 1.0 ml. After 90 minutes at 4° C., the bound nitrendipine is separated from the unbound by filtration on Whatman GF/C fibers. After rinsing, the filters are dried and counted in a liquid scintillation counter.
Non-specific binding of ^3 H-nitrendipine (that amount bound in the presence of excess unlabelled nitrendipine) is subtracted from the total bound to obtain specifically bound radiolabeled nitrendipine. The amount of specifically bound nitrendipine in the presence of a test compound is compared to that amount bound in the absence of a compound. A percent displacement (or inhibition) can then be obtained.

The subject of experiment [2] is trachealis muscle. In words: Inhibition of calcium dependent smooth muscle contraction (KCl-challenged trachea). The class given is cell-based, dog. As to conditions: Canis lupus familiaris; for inhibition at 10 µM: concentration 10.0 μM; for inhibition at 2 µM: concentration 2.0 μM; for inhibition at 0.2 µM: concentration 0.2 μM; for inhibition at 0.1 µM: concentration 0.1 μM; for inhibition at 0.5 µM: concentration 0.5 μM. On the procedure: The test for inhibition of calcium dependent smooth muscle contraction is determined according to the following procedure:
Trachea from dogs sacrificed by excess KCl injection are stored overnight at 4° C. in oxygenated Krebs-Henseleit buffer. Tracheal rings, one cartilage segment wide (5-10 mm), are cut starting from the bronchial end. After cutting the cartilage, the trachealis muscle tissue is suspended in oxygenated Krebs-Henseleit buffer at 37° C. in a 25 ml tissue bath. After a 60 minutes equilibration period, the tissues are challenged with 10 μM carbachol. After 5 minutes the tissues are rinsed and allowed to rest 50 minutes. The tissues are then challenged with 50 mM KCl and, after 30 minutes, the contractions are quantitated. The tissues are then rinsed and reequilibrated for 50 minutes. Test compounds are then added for 10 minutes, and the tissue is rechallenged with 50 mMKcl. After 30 minutes, the contraction is recorded and used to determine the % inhibition of control.
The percent inhibition of smooth muscle contraction is calculated from response data before and after drug treatment. [formula] A rating is assigned to the compound depending upon the percent inhibition obtained.

Experiment [3] concerns Aorta Muscle. The experiment is described as follows: Inhibition of aorta muscle contraction. The class given is cell-based. The conditions noted are these: Table II; concentration 0.1 μM.
Setting [4] is: Table I, read-out: Inhibition of Ca2+ dependent smooth muscle contraction % Inhibition.
Where [5] appears, read: Table II, read-out: Inhibition Trachea Muscle Contraction % Inhibition.

pIC50: −log10 of the molar value. “And” between values parts separate entries of the source, which are not always exact repeats. Equal entries are not always repeated. Where two headings read alike, the source gives them in different places.

For the compound `CCOC(=O)C1=C(C)NC2=C(C1c1cccc([N+](=O)[O-])c1)S(=O)(=O)CCC2` (centres unmarked) [3 CH2 CH3 3-NO2C6 H4, Ethyl 3,4,5,8-tetrahydro-6-methyl-8-(3-nitrophenyl)-1,1-dioxo-2H-thio-pyrano[3,2-b]pyridine-7-carboxylate], the pIC50 in experiment [1] (Table I) is 6.77. Also, the inhibition at 10 µM in experiment [2] (setting [4]) stood at 69%.

`CCOC(=O)C1=C(C)NC2=C(C1c1ccccc1[N+](=O)[O-])S(=O)(=O)CCC2` (centres unmarked) [3 CH2 CH3 2-NO2C6 H4]: in experiment [1] (Table I), the pIC50 was 5.82. Besides, in experiment [2] (setting [4]), the inhibition at 10 µM turned out to be 75%.

In the case of `CC1=C(C(=O)OCCN(C)Cc2ccccc2)C(c2cccc([N+](=O)[O-])c2)C2=C(CCCS2(=O)=O)N1` (centres unmarked) [3 CH2 CH2 NCH3 CH2 C6 H5 3-NO2C6 H4, N-Benzyl-N-methyl-2-aminoethyl 2,3,4,8-tetrahydro-6-methyl-8-(3-nitrophenyl)-1,1-dioxo-5H-thiopyrano[3,2-b]pyridine-7-carboxylate Hemioxalate], in experiment [1] (Table I), the pIC50 is 5.73. Besides, in experiment [2] (setting [4]), the inhibition at 2 µM stood at 46%.

As to `COC(=O)C1=C(C)NC2=C(C1c1cccc([N+](=O)[O-])c1)S(=O)(=O)CCCC2` (centres unmarked) [4 CH3 3-NO2C6 H4], the pIC50 in experiment [1] (Table I) is 7.57 and 7.41. Moreover, the inhibition at 2 µM in experiment [2] (setting [4]) was 94%.

Consider `CC1=C(C(=O)OCCN(C)Cc2ccccc2)C(c2c(F)c(F)c(F)c(F)c2F)C2=C(CCCCS2(=O)=O)N1` (centres unmarked) [4 CH2 CH2 NCH3 CH2 C6 H5 C6 F5, N-Benzyl-N-methylaminoethyl 9-(2,3,4,5,6-pentafluorophenyl)-2,3,4,5,6,9-hexahydro-7-methyl-1,1-dioxothiacyclohepteno[3,2-b]pyridine-8-carboxylate], for which, in experiment [1] (Table I), the pIC50 is 7.46. In experiment [2] (setting [4]), the inhibition at 0.2 µM was 74%.

Consider `CCOC(=O)C1=C(C)NC2=C(C1c1c(F)c(F)c(F)c(F)c1F)S(=O)(=O)CC2` (centres unmarked) [2 CH2 CH3 C6 F5], for which the negative-log IC50 (pIC50) in experiment [1] (Table I) was 6.25. Also, the inhibition at 2 µM in experiment [2] (setting [4]) was found to be 48%.

Consider `COC(=O)C1=C(C)NC2=C(C1c1cccc(Cl)c1)S(=O)(=O)CC2` (centres unmarked) [2 CH3 3-ClC6 H4], for which the pIC50 in experiment [1] (Table I) was 6.03.

As for `CCOC(=O)C1=C(C)NC2=C(C1c1cccc([N+](=O)[O-])c1)S(=O)(=O)CCCC2` (centres unmarked) [4 CH 2 CH3 3-NO2C6 H4, Ethyl 2,3,4,5,6,9-hexahydro-7-methyl-9-(3-nitrophenyl)-1,1-dioxothiacyclohepteno[3,2-b]pyridine-8-carboxylate], in experiment [1] (Table I), the pIC50 was 7.36. For the same compound, the inhibition at 2 µM in experiment [2] (setting [4]) turned out to be 96%.

In turn, `CCOC(=O)C1=C(C)NC2=C(C1c1cccnc1SC)S(=O)(=O)CCCCC2` (centres unmarked) [drawing 8 CH2 CH3] had an inhibition at 0.1 µM in experiment [3] of 42%. For the same compound, the inhibition at 0.3 µM in experiment [2] (Table II, concentration 0.3 μM) is 79%.

Regarding `COC(=O)C1=C(C)NC2=C(C1c1ccccc1[N+](=O)[O-])S(=O)(=O)CC2` (centres unmarked) [2 CH3 2-NO2C6 H4, Methyl 2,3,4,7,-tetrahydro-5-methyl-7-(2-nitrophenyl)-1,1-dioxothieno[3,2-b]pyridine-6-carboxylate], the pIC50 in experiment [1] (Table I) was 5.87. Further, the inhibition at 2 µM in experiment [2] (setting [4]) came to 63%.

On to `CCOC(=O)C1=C(C)NC2=CCCCCS(=O)(=O)C2C1c1cccc([N+](=O)[O-])c1` (centres unmarked) [Ethyl 3,4,5,7,10,10a-hexahydro-8-methyl-10-(3-nitrophenyl)-1,1-dioxo-2H-thiacycloocteno[3,2-b]pyridine-9-carboxylate], for which the pIC50 in experiment [1] (Table I) is 6.57. In experiment [2] (setting [4]), the inhibition at 2 µM was 53%.

In the case of `COC(=O)C1=C(C)NC2=C(C1c1ccccc1[N+](=O)[O-])S(=O)(=O)CCC2` (centres unmarked) [3 CH3 2-NO2C6 H4], in experiment [1] (Table I), the pIC50 is 6.05. Besides, the inhibition at 10 µM in experiment [2] (setting [4]) was determined as 84%.

As for `COC(=O)C1=C(C)NC2(O)CCS(=O)(=O)C2C1c1ccccc1[N+](=O)[O-]` (centres unmarked) [Methyl 2,3,3a,4,7,7a-hexahydro-3a-hydroxy-5-methyl-7-(2-nitrophenyl)-1,1-dioxo-thieno[3,2-b]pyridine-6-carboxylate], in experiment [2] (setting [4]), the inhibition at 2 µM was determined as 26%.

In the case of `CC1=C(C(=O)OCCN(C)Cc2ccccc2)C(c2ccccc2OC(F)F)C2=C(CCCCS2(=O)=O)N1` (centres unmarked) [4 2-OCHF2C6 H4, N-Benzyl-N-methylaminoethyl 9-(2-cifluoromethoxyphenyl)-2,4,5,6,9-hexahydro-7-methyl-1,1-dioxothiacyclohepteno[3,2-b]pyridine-8-carboxylate], the pIC50 in experiment [1] (Table II) was 7.14. Moreover, the inhibition at 0.1 µM in experiment [2] (setting [5]) worked out at 54%.

Turning to `COC(=O)C1=C(C)NC2=C(C1c1c(F)c(F)c(F)c(F)c1F)S(=O)(=O)CC2` (centres unmarked) [2 CH3 C6 F5], the pIC50 in experiment [1] (Table I) was 6.82. For the same compound, the inhibition at 2 µM in experiment [2] (setting [4]) worked out at 47%.

On to `COC(=O)C1=C(C)NC2=C(C1c1c(F)c(F)c(F)c(F)c1F)S(=O)(=O)CCC2` (centres unmarked) [3 CH3 C6 F5], for which the negative logarithm of the IC50 (pIC50) in experiment [1] (Table I) is 6.40. Also, the inhibition at 0.5 µM in experiment [2] (setting [4]) worked out at 46%.

Take `CC1=C(C(=O)OC2CCCSC2)C(c2c(F)c(F)c(F)c(F)c2F)C2=C(CCCCS2(=O)=O)N1` (centres unmarked) [4 C6 F5 drawing 13]: the inhibition at 2 µM in experiment [2] (setting [5]) was determined as 53%.

`CCOC(=O)C1=C(C)NC2=C(C1c1cccc([N+](=O)[O-])c1)S(=O)(=O)CCCCC2` (centres unmarked) [5 CH2 CH3 3-NO2C6 H4]: the pIC50 in experiment [1] (Table I) was 8.26. Moreover, the inhibition at 0.1 µM in experiment [2] (setting [4]) is 71%.

Turning to `CC1=C(C(=O)OCCN(C)Cc2ccccc2)C(c2cccc([N+](=O)[O-])c2)C2=C(CCCCS2(=O)=O)N1` (centres unmarked) [4 CH2 CH2 NCH3 CH2 C6 H5 3-NO2C6 H4, N-Benzyl-N-methylaminoethyl 2,4,5,6,9-hexahydro-7-methyl-9-(3-nitrophenyl)-1,1-dioxothiacyclohepteno[3,2-b]pyridine-8-carboxylate], the pIC50 in experiment [1] (Table I) was 6.89. The inhibition at 0.2 µM in experiment [2] (setting [4]) is 68%.

Regarding `CC1=C(C(=O)OC2CCCSC2)C(c2cccc(Cl)c2Cl)C2=C(CCCCS2(=O)=O)N1` (centres unmarked) [4 2,3-Cl2C6 H3 drawing 14], in experiment [2] (setting [5]), the inhibition at 2 µM came out at 54%.

Consider `CCOC(=O)C1=C(C)NC2=C(C1c1c(F)c(F)c(F)c(F)c1F)S(=O)(=O)CCCC2` (centres unmarked) [4 CH2 CH3 C6 F5, Ethyl 9-(2,3,4,5,6-pentafluorophenyl)-2,3,4,5,6,9-hexahydro-7-methyl-1,1-dioxothiacyclohepteno[3,2-b]pyridine-8-carboxylate], for which, in experiment [1] (Table I), the pIC50 is 7.55. In experiment [2] (setting [4]), the inhibition at 0.5 µM is 95%.

As for `COC(=O)C1=C(C)NC2=C(C1c1cccc([N+](=O)[O-])c1)S(=O)(=O)CCC2` (centres unmarked) [3 CH3 3-NO2C6 H4, Methyl 3,4,5,8,-tetrahydro-6-methyl-8-(3-nitrophenyl)-1,1-dioxo-2H-thiopyrano-[3,2-b]pyridine-7-carboxylate], the pIC50 in experiment [1] (Table I) was 6.80. The inhibition at 10 µM in experiment [2] (setting [4]) is 57%.

Regarding `CC1=C(C(=O)OCCN(C)Cc2ccccc2)C(c2cccc([N+](=O)[O-])c2)C2=C(CCS2(=O)=O)N1` (centres unmarked) [2 CH2 CH2 NCH3 CH2 C6 H5 3-NO2C6 H4, N-Benzyl-N-methylaminoethyl 2,3,4,7-tetrahydro-5-methyl-7-(3-nitrophenyl)-1,1-dioxothieno[3,2-b]pyridine-6-carboxylate], the pIC50 in experiment [1] (Table I) was 6.00. For the same compound, in experiment [2] (Table I, concentration 5.0 μM, read-out: Inhibition of Ca2+ dependent smooth muscle contraction % Inhibition), the inhibition at 5 µM stood at 65%.

On to `COC(=O)C1=C(C)NC2=C(C1c1cccc(C#N)c1)S(=O)(=O)CC2` (centres unmarked) [2 CH3 3-CNC6 H4], for which the pIC50 in experiment [1] (Table I) is 5.70.

Take `COC(=O)C1=C(C)NC2=C(C1c1cccc([N+](=O)[O-])c1)S(=O)(=O)CC2` (centres unmarked) [2 CH3 3-NO2C6 H4]: the pIC50 in experiment [1] (Table I) was 6.15. For the same compound, in experiment [2] (setting [4]), the inhibition at 10 µM worked out at 76%.

`CC1=C(C(=O)OCc2ccccc2)C(c2ccccc2[N+](=O)[O-])C2=C(CCCS2(=O)=O)N1` (centres unmarked) [3 CH2 C6 H5 2-NO2C6 H4]: in experiment [1] (Table I), the pIC50 is 5.47. Moreover, the inhibition at 10 µM in experiment [2] (setting [4]) amounted to 69%.
